Data as given in ChEMBL document CHEMBL6127061, “Discovery of orally bioavailable ALK PROTACs based ceritinib against ALK positive cancers” (Eur J Med Chem, 2024).

What was measured:
[1] = microsomes, 1 h, 1.5 µM
Description: Metabolic stability in liver microsomes (unknown origin) at 1.5 uM measured upto 60 mins in presence of NADPH by LC-MS/MS analysis

[2] = human, plasma, 1 h
Description: Metabolic stability in human plasma measured upto 60 mins in presence of NADPH by LC-MS/MS analysis

[3] = Half life in ICR mouse at 1 mg/kg, iv measured upto 24 hrs by LC-MS/MS analysis; assay type: ADME, organism-based; settings: in vivo
[4] = Tmax in ICR mouse at 1 mg/kg, iv measured upto 24 hrs by LC-MS/MS analysis; assay type: ADME, organism-based; settings: in vivo
[5] = Cmax in ICR mouse at 1 mg/kg, iv measured upto 24 hrs by LC-MS/MS analysis; assay type: ADME, organism-based; settings: in vivo
[6] = AUC(0 to 24 hrs) in ICR mouse at 1 mg/kg, iv measured upto 24 hrs by LC-MS/MS analysis; assay type: ADME, organism-based; settings: in vivo
[7] = AUCinfinity in ICR mouse at 1 mg/kg, iv measured upto 24 hrs by LC-MS/MS analysis; assay type: ADME, organism-based; settings: in vivo
[8] = MRT(0 to t) in ICR mouse at 1 mg/kg, iv measured upto 24 hrs by LC-MS/MS analysis; assay type: ADME, organism-based; settings: in vivo
[9] = MRTinfinity in ICR mouse at 1 mg/kg, iv measured upto 24 hrs by LC-MS/MS analysis; assay type: ADME, organism-based; settings: in vivo
[10] = Half life in ICR mouse at 10 mg/kg, po measured upto 24 hrs by LC-MS/MS analysis; assay type: ADME, organism-based; settings: in vivo
[11] = Tmax in ICR mouse at 10 mg/kg, po measured upto 24 hrs by LC-MS/MS analysis; assay type: ADME, organism-based; settings: in vivo
[12] = Cmax in ICR mouse at 10 mg/kg, po measured upto 24 hrs by LC-MS/MS analysis; assay type: ADME, organism-based; settings: in vivo
[13] = AUC(0 to 24 hrs) in ICR mouse at 10 mg/kg, po measured upto 24 hrs by LC-MS/MS analysis; assay type: ADME, organism-based; settings: in vivo
[14] = AUCinfinity in ICR mouse at 10 mg/kg, po measured upto 24 hrs by LC-MS/MS analysis; assay type: ADME, organism-based; settings: in vivo
[15] = MRT(0 to t) in ICR mouse at 10 mg/kg, po measured upto 24 hrs by LC-MS/MS analysis; assay type: ADME, organism-based; settings: in vivo
[16] = MRTinfinity in ICR mouse at 10 mg/kg, po measured upto 24 hrs by LC-MS/MS analysis; assay type: ADME, organism-based; settings: in vivo
[17] = Oral bioavailability in ICR mouse at 10 mg/kg measured upto 24 hrs by LC-MS/MS analysis; assay type: ADME, organism-based; settings: in vivo
[18] = Drug concentration in ICR mouse at 10 mmg/kg, po measured after 0.5 to 24 hrs; assay type: ADME, organism-based; settings: in vivo, 10 mg/kg, time 0.5-24 hrs

Stability [1]	Stability [2]	half-life [3] [h]	Tmax [4] [min]	Cmax [5] [ng/mL]	AUC(0-t) at 24 h [6] [ng·h/mL]	AUC(0-inf) [7] [ng·h/mL]	MRT last at 24 h [8] [h]	MRT inf [9] [h]	half-life [10] [h]	Tmax [11] [h]	Cmax [12] [ng/mL]	AUC(0-t) at 24 h [13] [ng·h/mL]	AUC(0-inf) [14] [ng·h/mL]	MRT last at 24 h [15] [h]	MRT inf [16] [h]	bioavailability [17] [%]	Drug uptake [18] [ng/mL]	SMILES
Stable	Stable	–	–	–	–	–	–	–	–	–	–	–	–	–	–	–	–	Cc1cc(Nc2ncc(Cl)c(Nc3ccccc3S(=O)(=O)C(C)C)n2)c(OC(C)C)cc1C1CCN(C2CCN(C3CN(c4ccc5c(c4)C(=O)N(C4CCC(=O)NC4=O)C5=O)C3)CC2)CC1 (stereo not given)
Stable	Stable	10.8	4.98	3000	17600	21700	7.19	13.2	11.2	4	1710	23900	30800	8.61	15.7	14.2	400	Cc1cc(Nc2ncc(Cl)c(Nc3ccccc3S(=O)(=O)C(C)C)n2)c(OC(C)C)cc1C1CCN(C2CN(C3CCN(c4ccc5c(c4)C(=O)N(C4CCC(=O)NC4=O)C5=O)CC3)C2)CC1 (stereo not given)
